# Results taken from patent US20110071108A1, “Beta-Cyclodextrin Derivatives as Antibacterial Agents” (Pinnacle Pharmaceuticals, Inc., priority 2005, published 2011).
# Assays:
# Enterococcus faecium = assay: Bacterial panel testing, MIC by broth microdilution; type: cell-based; conditions: 20-24 hours growth
# Outline: (§1)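 Strains grown 2-4 h, 37° C, MH or BHI broth per strain; McFarland-standardized, diluted in media. Cpd 10 μg/ml in DMSO, 2-fold serial dilution cols 2-12. Rifampicin included. 20-24 h growth; clear wells scored.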
# Salmonella choleraesuis = assay: as above; type: cell-based; conditions: 20-24 hours growth
# Outline: as §1
# Staphylococcus aureus = assay: as above; type: cell-based; conditions: 20-24 hours growth
# Outline: as §1
# Lungs cancer cells A549 = assay: Mammalian cytotoxicity
# Eschericia coli = assay: Bacterial panel testing, MIC by broth microdilution; type: cell-based; conditions: 20-24 hours growth
# Outline: as §1
# Pseudomonas aeruginosa = assay: as above; type: cell-based; conditions: 20-24 hours growth
# Outline: as §1
SMILES,MIC EF (Enterococcus faecium),MIC SC (Salmonella choleraesuis),MIC SA (Staphylococcus aureus),Mammalian Cytotoxicity IC50 (Lungs cancer cells A549),MIC EC (Eschericia coli),MIC PA (Pseudomonas aeruginosa)
NC[C@H]1O[C@@H]2O[C@H]3[C@H](O)[C@@H](O)[C@@H](O[C@H]4[C@H](O)[C@@H](O)[C@@H](O[C@H]5[C@H](O)[C@@H](O)[C@@H](O[C@H]6[C@H](O)[C@@H](O)[C@@H](O[C@H]7[C@H](O)[C@@H](O)[C@@H](O[C@H]8[C@H](O)[C@@H](O)[C@@H](O[C@H]1[C@H](O)[C@H]2O)O[C@@H]8CN)O[C@@H]7CN)O[C@@H]6CN)O[C@@H]5CN)O[C@@H]4CN)O[C@@H]3CN,>200 µg/mL,>200 µg/mL,>200 µg/mL,720 µg/mL,,
NCC(=O)NC[C@H]1O[C@@H]2O[C@H]3[C@H](O)[C@@H](O)[C@@H](O[C@H]4[C@H](O)[C@@H](O)[C@@H](O[C@H]5[C@H](O)[C@@H](O)[C@@H](O[C@H]6[C@H](O)[C@@H](O)[C@@H](O[C@H]7[C@H](O)[C@@H](O)[C@@H](O[C@H]8[C@H](O)[C@@H](O)[C@@H](O[C@H]1[C@H](O)[C@H]2O)O[C@@H]8CNC(=O)CN)O[C@@H]7CNC(=O)CN)O[C@@H]6CNC(=O)CN)O[C@@H]5CNC(=O)CN)O[C@@H]4CNC(=O)CN)O[C@@H]3CNC(=O)CN,>200 µg/mL,>200 µg/mL,>200 µg/mL,690 µg/mL,>200 µg/mL,>200 µg/mL
NCCCCCC(=O)NC[C@H]1O[C@@H]2O[C@H]3[C@H](O)[C@@H](O)[C@@H](O[C@H]4[C@H](O)[C@@H](O)[C@@H](O[C@H]5[C@H](O)[C@@H](O)[C@@H](O[C@H]6[C@H](O)[C@@H](O)[C@@H](O[C@H]7[C@H](O)[C@@H](O)[C@@H](O[C@H]8[C@H](O)[C@@H](O)[C@@H](O[C@H]1[C@H](O)[C@H]2O)O[C@@H]8CNC(=O)CCCCCN)O[C@@H]7CNC(=O)CCCCCN)O[C@@H]6CNC(=O)CCCCCN)O[C@@H]5CNC(=O)CCCCCN)O[C@@H]4CNC(=O)CCCCCN)O[C@@H]3CNC(=O)CCCCCN,>200 µg/mL,>200 µg/mL,,780 µg/mL,>200 µg/mL,>200 µg/mL
[N-]=[N+]=NC[C@H]1O[C@@H]2O[C@H]3[C@H](O)[C@@H](O)[C@@H](O[C@H]4[C@H](O)[C@@H](O)[C@@H](O[C@H]5[C@H](O)[C@@H](O)[C@@H](O[C@H]6[C@H](O)[C@@H](O)[C@@H](O[C@H]7[C@H](O)[C@@H](O)[C@@H](O[C@H]8[C@H](O)[C@@H](O)[C@@H](O[C@H]1[C@H](O)[C@H]2O)O[C@@H]8CN=[N+]=[N-])O[C@@H]7CN=[N+]=[N-])O[C@@H]6CN=[N+]=[N-])O[C@@H]5CN=[N+]=[N-])O[C@@H]4CN=[N+]=[N-])O[C@@H]3CN=[N+]=[N-],>200 µg/mL,>200 µg/mL,,2116 µg/mL,>200 µg/mL,>200 µg/mL
O[C@@H]1[C@@H](O)[C@H]2O[C@H]3[C@H](O)[C@@H](O)[C@@H](O[C@H]4[C@H](O)[C@@H](O)[C@@H](O[C@H]5[C@H](O)[C@@H](O)[C@@H](O[C@H]6[C@H](O)[C@@H](O)[C@@H](O[C@H]7[C@H](O)[C@@H](O)[C@@H](O[C@H]8[C@H](O)[C@@H](O)[C@@H](O[C@@H]1[C@@H](CNc1ncccc1OCc1ccccc1)O2)O[C@@H]8CNc1ncccc1OCc1ccccc1)O[C@@H]7CNc1ncccc1OCc1ccccc1)O[C@@H]6CNc1ncccc1OCc1ccccc1)O[C@@H]5CNc1ncccc1OCc1ccccc1)O[C@@H]4CNc1ncccc1OCc1ccccc1)O[C@@H]3CNc1ncccc1OCc1ccccc1,,>200 µg/mL,,398 µg/mL,>200 µg/mL,>200 µg/mL
OC1C2OC(CNc3nc4ccccc4s3)C(OC3OC(CNc4nc5ccccc5s4)C(OC4OC(CNc5nc6ccccc6s5)C(OC5OC(CNc6nc7ccccc7s6)C(OC6OC(CNc7nc8ccccc8s7)C(OC7OC(CNc8nc9ccccc9s8)C(OC8OC(CNc9nc%10ccccc%10s9)C(O2)C(O)C8O)C(O)C7O)C(O)C6O)C(O)C5O)C(O)C4O)C(O)C3O)C1O (stereo not shown),,>200 µg/mL,,317 µg/mL,>200 µg/mL,>200 µg/mL
OC1C2OC(CNC3CCNCC3)C(OC3OC(CNC4CCNCC4)C(OC4OC(CNC5CCNCC5)C(OC5OC(CNC6CCNCC6)C(OC6OC(CNC7CCNCC7)C(OC7OC(CNC8CCNCC8)C(OC8OC(CNC9CCNCC9)C(O2)C(O)C8O)C(O)C7O)C(O)C6O)C(O)C5O)C(O)C4O)C(O)C3O)C1O (stereo not shown),,>200 µg/mL,,378 µg/mL,,>200 µg/mL
Cc1ccc(CNCC2OC3OC4C(CNCc5ccc(C)cc5)OC(OC5C(CNCc6ccc(C)cc6)OC(OC6C(CNCc7ccc(C)cc7)OC(OC7C(CNCc8ccc(C)cc8)OC(OC8C(CNCc9ccc(C)cc9)OC(OC9C(CNCc%10ccc(C)cc%10)OC(OC2C(O)C3O)C(O)C9O)C(O)C8O)C(O)C7O)C(O)C6O)C(O)C5O)C(O)C4O)cc1 (stereo not shown),,>200 µg/mL,,376 µg/mL,,>200 µg/mL
Cl.Cl.Cl.Cl.Cl.Cl.Cl.NCc1ccc(CSCC2OC3OC4C(CSCc5ccc(CN)cc5)OC(OC5C(CSCc6ccc(CN)cc6)OC(OC6C(CSCc7ccc(CN)cc7)OC(OC7C(CSCc8ccc(CN)cc8)OC(OC8C(CSCc9ccc(CN)cc9)OC(OC9C(CSCc%10ccc(CN)cc%10)OC(OC2C(O)C3O)C(O)C9O)C(O)C8O)C(O)C7O)C(O)C6O)C(O)C5O)C(O)C4O)cc1 (stereo not shown),>200 µg/mL,,>200 µg/mL,56.2 µg/mL,,
Cl.Cl.Cl.Cl.Cl.Cl.Cl.NCc1cccc(CSCC2OC3OC4C(CSCc5cccc(CN)c5)OC(OC5C(CSCc6cccc(CN)c6)OC(OC6C(CSCc7cccc(CN)c7)OC(OC7C(CSCc8cccc(CN)c8)OC(OC8C(CSCc9cccc(CN)c9)OC(OC9C(CSCc%10cccc(CN)c%10)OC(OC2C(O)C3O)C(O)C9O)C(O)C8O)C(O)C7O)C(O)C6O)C(O)C5O)C(O)C4O)c1 (stereo not shown),>200 µg/mL,>200 µg/mL,,54.3 µg/mL,,
OC1C2OC(CNC3CCCCC3)C(OC3OC(CNC4CCCCC4)C(OC4OC(CNC5CCCCC5)C(OC5OC(CNC6CCCCC6)C(OC6OC(CNC7CCCCC7)C(OC7OC(CNC8CCCCC8)C(OC8OC(CNC9CCCCC9)C(O2)C(O)C8O)C(O)C7O)C(O)C6O)C(O)C5O)C(O)C4O)C(O)C3O)C1O (stereo not shown),,>200 µg/mL,,373 µg/mL,,>200 µg/mL
COc1ccc(CNCC2OC3OC4C(CNCc5ccc(OC)cc5)OC(OC5C(CNCc6ccc(OC)cc6)OC(OC6C(CNCc7ccc(OC)cc7)OC(OC7C(CNCc8ccc(OC)cc8)OC(OC8C(CNCc9ccc(OC)cc9)OC(OC9C(CNCc%10ccc(OC)cc%10)OC(OC2C(O)C3O)C(O)C9O)C(O)C8O)C(O)C7O)C(O)C6O)C(O)C5O)C(O)C4O)cc1 (stereo not shown),,>200 µg/mL,,297 µg/mL,,>200 µg/mL
